| Compound | melting point [°C] |
| --- | --- |
| O=C(NC(CNc1ccccc1)C(=O)O)OCc1ccc(-c2ccccc2)cc1 (stereo not shown) [Compound 179, 2-(biphenyl-4-ylmethoxycarbonylamino)-3-phenylamino-propionic acid] | 143 to 146 |
| O=C(NC(Cc1ccccc1)C(=O)O)OCc1ccc(NC(=O)c2ccccc2)cc1 (stereo not shown) [Compound 181, 2-(4-benzoylamino-benzyloxycarbonylamino)-3-phenyl-propionic acid] | 196.9 to 198.1 |
| O=C(NC(Cc1ccccc1)C(=O)O)OCc1ccc(C#Cc2ccccc2)cc1 (stereo not shown) [Compound 182, 3-phenyl-2-(4-phenylethynyl-benzyloxycarbonylamino)-propionic acid] | 172.1 to 173.4 |

Further lines, results first:

| melting point [°C] | Compound |
| --- | --- |
| 255.2 to 255.7 | O=C(NC(Cc1ccncc1)C(=O)O)OCc1cc2cc(-c3ccc(F)cc3)ccc2o1 (stereo not shown) [Compound 176, 2-[5-(4-fluoro-phenyl)-benzofuran-2-ylmethoxycarbonylamino]-3-pyridin-4-yl-propionic acid] |
| 101.1 to 103.2 | O=C(NC(Cc1ccc(F)cc1)C(=O)O)OCc1cc2cc(-c3cc(Cl)cc(Cl)c3)ccc2o1 (stereo not shown) [Compound 177, 2-[5-(3,5-dichloro-phenyl)-benzofuran-2-ylmethoxycarbonylamino]-3-(4-fluoro-phenyl)-propionic acid] |
| 152.6 to 154.8 | COc1ccc(NCC(NC(=O)OCc2ccc(-c3ccccc3)cc2)C(=O)O)cc1 (stereo not shown) [Compound 180, 2-(biphenyl-4-ylmethoxycarbonylamino)-3-(4-methoxy-phenylamino)-propionic acid] |
| 113.3 to 114.1 | O=C(NC(Cc1ccccc1)C(=O)O)OCc1ccc(CSc2ccccc2)cc1 (stereo not shown) [Compound 183, 3-phenyl-2-(4-phenylsulfanylmethyl-benzyloxycarbonylamino)-propionic acid] |

Source: patent publication US7056903B2, “Carboxylic acid derivatives as IP antagonists” (Syntex (U.S.A.) LLC, priority 2000, dated 2006)
